Experimental data from PubChem BioAssay (NCI).
Values joined by “and” are separate entries in the source; they are usually repeats but may differ in a detail not shown here. Equal entries are not always repeated.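 A five-concentration, 48-hour dose response in 96-well plates underlies each endpoint, interpolated linearly between surrounding concentrations. GI50 is the concentration that inhibits growth by half. TGI: concentration producing complete growth inhibition.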

What was measured:
Assay in all cases: NCI-60 cell line screen, 48 h; in the data active means GI50 below about 0.43 µM; inactive means the rest
OVCAR-5 ovarian = system: OVCAR-5 ovarian
HOP-62 NSCLC = system: HOP-62 NSCLC
KM12 colon = system: KM12 colon
LOX IMVI melanoma = system: LOX IMVI melanoma
SNB-75 CNS = system: SNB-75 CNS
SK-MEL-5 melanoma = system: SK-MEL-5 melanoma
M14 melanoma = system: M14 melanoma
ACHN renal = system: ACHN renal
SF-268 CNS = system: SF-268 CNS
SF-295 CNS = system: SF-295 CNS
SF-539 CNS = system: SF-539 CNS
NCI-H226 lung = system: NCI-H226 lung
HCT-15 colon = system: HCT-15 colon
TK-10 renal = system: TK-10 renal
CCRF-CEM leukemia = system: CCRF-CEM leukemia
SR leukemia = system: SR leukemia
NCI-H522 lung = system: NCI-H522 lung
UACC-257 melanoma = system: UACC-257 melanoma
HOP-18 NSCLC = system: HOP-18 NSCLC
HT29 colon = system: HT29 colon
SK-MEL-28 melanoma = system: SK-MEL-28 melanoma
NCI-H23 lung = system: NCI-H23 lung
MALME-3M melanoma = system: MALME-3M melanoma
786-0 renal = system: 786-0 renal
A549 NSCLC = system: A549 NSCLC
HCC-2998 colon = system: HCC-2998 colon
NCI-H460 lung = system: NCI-H460 lung
OVCAR-3 ovarian = system: OVCAR-3 ovarian
EKVX NSCLC = system: EKVX NSCLC
K-562 leukemia = system: K-562 leukemia
DLD-1 colon = system: DLD-1 colon
M19-MEL melanoma = system: M19-MEL melanoma
RXF 393 renal = system: RXF 393 renal
SW-620 colon = system: SW-620 colon
MOLT-4 leukemia = system: MOLT-4 leukemia
IGROV1 ovarian = system: IGROV1 ovarian
HL-60(TB) leukemia = system: HL-60(TB) leukemia
HOP-92 NSCLC = system: HOP-92 NSCLC
KM20L2 colon = system: KM20L2 colon
SNB-19 CNS = system: SNB-19 CNS
SN12C renal = system: SN12C renal
HCT-116 colon = system: HCT-116 colon
U251 CNS = system: U251 CNS
SNB-78 CNS = system: SNB-78 CNS
UO-31 renal = system: UO-31 renal
LXFL 529 NSCLC = system: LXFL 529 NSCLC
SK-MEL-2 melanoma = system: SK-MEL-2 melanoma
UACC-62 melanoma = system: UACC-62 melanoma
SK-OV-3 ovarian = system: SK-OV-3 ovarian
COLO 205 colon = system: COLO 205 colon
OVCAR-8 ovarian = system: OVCAR-8 ovarian
DMS 114 small cell lung = system: DMS 114 small cell lung
OVCAR-4 ovarian = system: OVCAR-4 ovarian
RPMI-8226 leukemia = system: RPMI-8226 leukemia
CAKI-1 renal = system: CAKI-1 renal
NCI/ADR-RES ovarian = system: NCI/ADR-RES ovarian
MCF7 breast = system: MCF7 breast
DMS 273 small cell lung = system: DMS 273 small cell lung
BT-549 breast = system: BT-549 breast
HS 578T breast = system: HS 578T breast
MDA-N = system: MDA-N
DU-145 prostate = system: DU-145 prostate
T-47D breast = system: T-47D breast
PC-3 prostate = system: PC-3 prostate
A498 renal = system: A498 renal
MDA-MB-231 breast = system: MDA-MB-231 breast

COc1cc2cccc(N=Cc3ccccc3Cl)c2cc1OC
> 100 µM: TGI (OVCAR-5 ovarian) | TGI (HOP-62 NSCLC) | TGI (KM12 colon) | TGI (LOX IMVI melanoma) | TGI (SNB-75 CNS) | TGI (SK-MEL-5 melanoma) | TGI (M14 melanoma) | TGI (ACHN renal) | TGI (SF-268 CNS) | TGI (SF-295 CNS) | TGI (SF-539 CNS) | TGI (NCI-H226 lung) | TGI (HCT-15 colon) | TGI (TK-10 renal) | TGI (CCRF-CEM leukemia) | TGI (SR leukemia) | TGI (NCI-H522 lung) | TGI (UACC-257 melanoma) | TGI (HOP-18 NSCLC) | TGI (HT29 colon) | TGI (SK-MEL-28 melanoma) | TGI (NCI-H23 lung) | TGI (MALME-3M melanoma) | TGI (786-0 renal) | TGI (A549 NSCLC) | TGI (HCC-2998 colon) | TGI (NCI-H460 lung) | TGI (OVCAR-3 ovarian) | TGI (EKVX NSCLC) | TGI (K-562 leukemia) | TGI (DLD-1 colon) | TGI (M19-MEL melanoma) | TGI (RXF 393 renal) | TGI (SW-620 colon) | TGI (MOLT-4 leukemia) | TGI (IGROV1 ovarian) | TGI (HL-60(TB) leukemia) | TGI (HOP-92 NSCLC) | TGI (KM20L2 colon) | TGI (SNB-19 CNS) | TGI (SN12C renal) | TGI (HCT-116 colon) | TGI (U251 CNS) | TGI (SNB-78 CNS) | TGI (UO-31 renal) | TGI (LXFL 529 NSCLC) | TGI (SK-MEL-2 melanoma) | TGI (UACC-62 melanoma) | TGI (SK-OV-3 ovarian) | TGI (COLO 205 colon) | TGI (OVCAR-8 ovarian) | TGI (DMS 114 small cell lung) | TGI (OVCAR-4 ovarian) | TGI (RPMI-8226 leukemia) | TGI (CAKI-1 renal)

COc1ccc(NCc2cc(OC)c(OC)c(OC)c2)cc1
> 100 µM and 19.4 µM: TGI (HOP-92 NSCLC)
0.404 µM and 1.04 µM: GI50 (CAKI-1 renal)
> 70.6 µM and 17.3 µM: TGI (A498 renal)
> 100 µM and 12.9 µM: TGI (HT29 colon)
0.281 µM and 0.855 µM: GI50 (CCRF-CEM leukemia)
0.513 µM and 0.262 µM: GI50 (SNB-75 CNS)
0.833 µM and 0.654 µM: TGI (DMS 114 small cell lung)
> 100 µM and 22.5 µM: TGI (SK-OV-3 ovarian)
> 32.7 µM and 31.3 µM: TGI (KM12 colon)
31.4 µM: TGI (NCI-H23 lung)
> 32.7 µM and 37.1 µM: TGI (NCI-H460 lung)
> 29 µM: TGI (SR leukemia)
0.784 µM and 2.83 µM: TGI (COLO 205 colon)
0.414 µM and 4.04 µM: GI50 (NCI-H226 lung)
> 74.1 µM: TGI (HOP-62 NSCLC)
inactive: GI50 (OVCAR-5 ovarian) > 91.7 µM and 20.2 µM | GI50 (ACHN renal) 0.713 µM and 1.84 µM | GI50 (HOP-18 NSCLC) > 43.3 µM | GI50 (UO-31 renal) 2.79 µM
active: GI50 (SK-MEL-5 melanoma) 0.252 µM | GI50 (K-562 leukemia) 0.0444 µM and 0.114 µM | GI50 (KM20L2 colon) 0.198 µM | GI50 (SK-MEL-2 melanoma) 0.328 µM | GI50 (UACC-62 melanoma) 0.308 µM
> 17.1 µM: TGI (NCI/ADR-RES ovarian)
2.22 µM and 0.929 µM: TGI (SF-539 CNS)
1.17 µM and 2.89 µM: TGI (OVCAR-3 ovarian)
32.7 µM and > 74.5 µM: TGI (SK-MEL-5 melanoma)
> 39.7 µM and 36.5 µM: TGI (HCT-15 colon)
> 100 µM: TGI (OVCAR-5 ovarian) | TGI (LOX IMVI melanoma) | TGI (SNB-75 CNS) | TGI (ACHN renal) | TGI (SF-268 CNS) | TGI (TK-10 renal) | TGI (CCRF-CEM leukemia) | TGI (UACC-257 melanoma) | TGI (HOP-18 NSCLC) | TGI (SK-MEL-28 melanoma) | TGI (MALME-3M melanoma) | TGI (786-0 renal) | TGI (MCF7 breast) | TGI (A549 NSCLC) | TGI (DMS 273 small cell lung) | TGI (EKVX NSCLC) | TGI (K-562 leukemia) | TGI (DLD-1 colon) | TGI (SW-620 colon) | TGI (BT-549 breast) | TGI (MOLT-4 leukemia) | TGI (IGROV1 ovarian) | TGI (SNB-19 CNS) | TGI (SN12C renal) | TGI (SNB-78 CNS) | TGI (HS 578T breast) | TGI (UO-31 renal) | TGI (LXFL 529 NSCLC) | TGI (SK-MEL-2 melanoma) | TGI (UACC-62 melanoma) | TGI (OVCAR-8 ovarian) | TGI (T-47D breast) | TGI (PC-3 prostate) | TGI (OVCAR-4 ovarian) | TGI (RPMI-8226 leukemia) | TGI (MDA-MB-231 breast) | TGI (CAKI-1 renal)
> 58.9 µM and 15.1 µM: TGI (U251 CNS)
6.38 µM and 29.1 µM: TGI (NCI-H226 lung)
> 47.8 µM: TGI (DU-145 prostate)
> 100 µM and 15.4 µM: TGI (M14 melanoma)
2.55 µM: TGI (MDA-N)
> 72 µM and 34.1 µM: TGI (HCT-116 colon)
0.338 µM and 1.16 µM: GI50 (UACC-257 melanoma)
7.62 µM: TGI (RXF 393 renal)
2.73 µM and 3.31 µM: TGI (HCC-2998 colon)

COc1cc(C(=O)NO)ccc1O
> 100 µM: TGI (OVCAR-5 ovarian) | TGI (HOP-62 NSCLC) | TGI (KM12 colon) | TGI (LOX IMVI melanoma) | TGI (SNB-75 CNS) | TGI (M14 melanoma) | TGI (ACHN renal) | TGI (SF-268 CNS) | TGI (SF-295 CNS) | TGI (SF-539 CNS) | TGI (HCT-15 colon) | TGI (TK-10 renal) | TGI (CCRF-CEM leukemia) | TGI (NCI-H522 lung) | TGI (UACC-257 melanoma) | TGI (HOP-18 NSCLC) | TGI (HT29 colon) | TGI (SK-MEL-28 melanoma) | TGI (NCI-H23 lung) | TGI (MALME-3M melanoma) | TGI (786-0 renal) | TGI (A549 NSCLC) | TGI (HCC-2998 colon) | TGI (DMS 273 small cell lung) | TGI (NCI-H460 lung) | TGI (OVCAR-3 ovarian) | TGI (EKVX NSCLC) | TGI (K-562 leukemia) | TGI (DLD-1 colon) | TGI (M19-MEL melanoma) | TGI (RXF 393 renal) | TGI (SW-620 colon) | TGI (MOLT-4 leukemia) | TGI (IGROV1 ovarian) | TGI (HL-60(TB) leukemia) | TGI (HOP-92 NSCLC) | TGI (KM20L2 colon) | TGI (SNB-19 CNS) | TGI (SN12C renal) | TGI (HCT-116 colon) | TGI (U251 CNS) | TGI (SNB-78 CNS) | TGI (UO-31 renal) | TGI (LXFL 529 NSCLC) | TGI (SK-MEL-2 melanoma) | TGI (UACC-62 melanoma) | TGI (SK-OV-3 ovarian) | TGI (COLO 205 colon) | TGI (OVCAR-8 ovarian) | TGI (DMS 114 small cell lung) | TGI (OVCAR-4 ovarian) | TGI (A498 renal) | TGI (RPMI-8226 leukemia)
